Reference: patent publication US11440898B2, “Isoquinoline compounds, methods for their preparation, and therapeutic uses thereof in conditions associated with the alteration of the activity of beta galactosidase” (Minoryx Therapeutics S.L., priority 2016, dated 2022)

These compounds were tested against T1, mutated beta-galactosidase (p.R60H canine GLB1) in GM11473 fibroblasts (Canis lupus familiaris, UniProt Q9TRY9, R60H) (assay: Enhancement of β-galactosidase activity measured in GM1 fibroblasts (GM11473), 4-MU-β-D-galactopyranoside substrate). Conditions: increase in β-galactosidase enzyme activity vs non-treated cells, concentrations between 6 and 50 μM, 4 days incubation.
T1 construct: host or cells: GM11473 canine GM1 gangliosidosis fibroblasts
T1 sequence (Q9TRY9 30-668 R60H): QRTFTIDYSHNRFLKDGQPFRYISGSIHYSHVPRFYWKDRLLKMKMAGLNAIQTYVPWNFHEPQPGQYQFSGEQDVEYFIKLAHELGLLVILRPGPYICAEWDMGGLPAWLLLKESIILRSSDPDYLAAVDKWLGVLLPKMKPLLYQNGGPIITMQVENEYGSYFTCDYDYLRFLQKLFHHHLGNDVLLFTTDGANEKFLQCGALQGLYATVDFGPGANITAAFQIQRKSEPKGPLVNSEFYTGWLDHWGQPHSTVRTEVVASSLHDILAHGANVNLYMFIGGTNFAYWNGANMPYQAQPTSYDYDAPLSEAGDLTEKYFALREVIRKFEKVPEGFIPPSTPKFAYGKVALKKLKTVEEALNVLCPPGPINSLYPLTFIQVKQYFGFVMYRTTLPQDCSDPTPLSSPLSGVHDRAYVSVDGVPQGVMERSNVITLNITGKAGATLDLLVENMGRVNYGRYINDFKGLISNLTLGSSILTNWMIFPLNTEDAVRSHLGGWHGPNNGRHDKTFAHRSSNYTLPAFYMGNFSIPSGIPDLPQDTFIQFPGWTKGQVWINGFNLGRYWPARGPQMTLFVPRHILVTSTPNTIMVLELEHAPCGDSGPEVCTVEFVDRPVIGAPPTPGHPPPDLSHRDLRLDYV
Format: cell-based
Set-up: key: Increase in comparison with non-treated of >2.5 fold is shown as A; Increase in comparison with non-treated of >1.7-2.5 fold is shown as B; Increase in comparison with non-treated of 1.2-1.7 fold is shown as C; D means that no increase compared with non-treated cells was detected in this method
Procedure: The capacity of the Compounds of the Disclosure to enhance mutated beta-galactosidase activity levels in GM1 fibroblasts was assayed as follows.
Fibroblasts homozygous for a GM1 gangliosidosis missense mutation (GM11473) (canine fibroblasts homozygous for the GM1 gangliosidosis missense mutation p.R60H equivalent to human p.R59H mutation) were purchased from Coriell Institute for Medical Research (Camden, N.J., USA).
Fibroblasts were seeded at 4×10^4 cells per well in 12-well cell culture plates in Dulbecco's Modified Eagle's Media (DMEM) supplemented with 10% of fetal bovine serum (FBS), 1% penicillin/streptomycin (P/S) (Thermo Fisher Scientific, Waltham, Mass., USA) and incubated at 37° C., 5% CO2 overnight for cell attachment. Subsequently, cells were incubated in the absence or presence of the compounds at the desired concentration for 4 days. After incubation, cells were washed twice with phosphate-buffered saline (“PBS”) and detached using Trypsin-EDTA solution (Sigma Aldrich, St. Louis, Mo., USA) to prepare cell pellets. The pellets were stored at −80° C. until activity assays were performed.
β-Galactosidase activity in cell lysates was measured by using 4-Methylumbelliferyl-β-D-galactopyranoside substrate (Sigma Aldrich, St. Louis, Mo., USA). Briefly, lysates were resuspended in 200 μL of 0.9% NaCl containing 0.01% triton X-100 lysis buffer to promote membrane disruption. The cell suspension was sonicated and centrifuged to remove insoluble materials. Then, lysates were mixed with 4-MU-β-D-galactopyranoside in 100 mM citrate buffer (pH=4) and 100 mM NaCl for 60 min at 37° C. The reaction was terminated by adding 100 mM glycine-NaOH buffer (pH=10.7). The liberated 4-MU was measured on a GloMax Discover plate reader (Promega, Madison, Wis., USA) with excitation at 340 nm and emission at 460 nm. Protein quantification was determined using Pierce BCA Protein Assay Kit (Thermo Fisher Scientific, Waltham, Mass., USA). Measurements were interpolated in a 4-MU standard curve and normalized by protein quantity. Enzyme activities were expressed in treated cells as X-fold increase in comparison with non-treated cells (X=1 represents no enhancement).
The capacity of the Compounds of the Disclosure to produce an increase in β-galactosidase enzyme activity in canine GM1 fibroblasts bearing p.R60H canine GLB1 mutation at concentrations between 6 and 50 μM is denoted as follows: • Increase in comparison with non-treated of >2.5 fold is shown as A. • Increase in comparison with non-treated of >1.7-2.5 fold is shown as B. • Increase in comparison with non-treated of 1.2-1.7 fold is shown as C. • D means that no increase compared with non-treated cells was detected in this method. • ND means “not determined.”

SMILES	Activity in GM11473 fibroblasts
N#Cc1ccc2ccnc(Nc3ccc(C(=O)NC4CCc5ccccc5C4)nc3)c2c1 (stereo not drawn) [Example 48, 5-((7-Cyanoisoquinolin-1-yl)amino)-N-(1,2,3,4-tetrahydronaphthalen-2-yl)picolinamide]	A (Increase in comparison with non-treated of >2.5 fold is shown as A)
O=C(NCc1ccc2c(c1)OCCO2)c1ccc(Nc2nccc3ccc(Cl)cc23)cc1 [Example 5, 4-((7-Chloroisoquinolin-1-yl)amino)-N-((2,3-dihydrobenzo[b][1,4]dioxin-6-yl)methyl)benzamide]	B (Increase in comparison with non-treated of >1.7-2.5 fold is shown as B)
COc1cccc(CNC(=O)c2ccc(Nc3nccc4ccc(Cl)cc34)cn2)c1 [Example 31, 5-((7-Chloroisoquinolin-1-yl)amino)-N-(3-methoxybenzyl)picolinamide]	B (Increase in comparison with non-treated of >1.7-2.5 fold is shown as B)
COc1ccc2c(c1)CCC(NC(=O)c1ccc(Nc3nccc4ccc(Cl)cc34)cn1)C2 (stereo not drawn) [Example 40, 5-((7-Chloroisoquinolin-1-yl)amino)-N-(6-methoxy-1,2,3,4-tetrahydronaphthalen-2-yl)picolinamide]	B (Increase in comparison with non-treated of >1.7-2.5 fold is shown as B)
O=C(NCc1ccc2c(c1)CCO2)c1ccc(Nc2nccc3ccc(Cl)cc23)cn1 [Example 36, 5-((7-Chloroisoquinolin-1-yl)amino)-N-((2,3-dihydrobenzofuran-5-yl)methyl)picolinamide]	C (Increase in comparison with non-treated of 1.2-1.7 fold is shown as C)
O=C(NCC(c1cccnc1)N1CCCC1)c1ccc(Nc2nccc3ccc(Cl)cc23)nc1 (stereo not drawn) [Example 53, 6-((7-Chloroisoquinolin-1-yl)amino)-N-(2-(pyridin-3-yl)-2-(pyrrolidin-1-yl)ethyl)nicotinamide]	C (Increase in comparison with non-treated of 1.2-1.7 fold is shown as C)
O=C(NCC(c1cccnc1)N1CCCC1)c1ccc(Nc2nccc3ccc(Cl)cc23)cc1 (stereo not drawn) [Example 6, 4-((7-Chloroisoquinolin-1-yl)amino)-N-(2-(pyridin-3-yl)-2-(pyrrolidin-1-yl)ethyl)benzamide]	D
COc1ccc(CNC(=O)c2cc(Nc3nccc4ccc(Cl)cc34)ccn2)cc1OC [Example 12, 4-((7-Chloroisoquinolin-1-yl)amino)-N-(3,4-dimethoxybenzyl)picolinamide]	C (Increase in comparison with non-treated of 1.2-1.7 fold is shown as C)
O=S(=O)(NCC(c1cccnc1)N1CCCC1)c1cccc(Nc2nccc3ccc(Cl)cc23)c1 (stereo not drawn) [Example 65, 3-((7-Chloroisoquinolin-1-yl)amino)-N-(2-(pyridin-3-yl)-2-(pyrrolidin-1-yl)ethyl)benzenesulfonamide]	C (Increase in comparison with non-treated of 1.2-1.7 fold is shown as C)
O=C(NCc1ccc2c(c1)OCCCO2)c1ccc(Nc2nccc3ccc(Cl)cc23)cn1 [Example 35, 5-((7-Chloroisoquinolin-1-yl)amino)-N-((3,4-dihydro-2H-benzo[b][1,4]dioxepin-7-yl)methyl)picolinamide]	C (Increase in comparison with non-treated of 1.2-1.7 fold is shown as C)
O=C(NC1CCc2ccccc2C1)c1ccc(Nc2nccc3ccc(Cl)cc23)nc1 (stereo not drawn) [Example 60, 6-((7-Chloroisoquinolin-1-yl)amino)-N-(1,2,3,4-tetrahydronaphthalen-2-yl)nicotinamide]	C (Increase in comparison with non-treated of 1.2-1.7 fold is shown as C)
O=C(NCc1ccc2c(c1)OCCO2)c1cc(Nc2nccc3ccc(Cl)cc23)ccn1 [Example 8, 4-((7-Chloroisoquinolin-1-yl)amino)-N-((2,3-dihydrobenzo[b][1,4]dioxin-6-yl)methyl)picolinamide]	B (Increase in comparison with non-treated of >1.7-2.5 fold is shown as B)
